Literature values as cited in PubChem BioAssay AID1259409 (Chemical Carcinogenesis Research Information System (CCRIS), 2018).

Test system: rodent chemically induced tumor inhibition, incidence and multiplicity
Test: CCRIS tumor inhibitor studies
Settings: Carcinogen: N-BUTYL-N-(4-HYDROXYBUTYL)NITROSAMINE, 3817-11-6, Route [Inhibitor]: ORAL, Species: RAT, Strain/Sex: F344/MALE, Target Tissue: Type of Lesion: URINARY BLADDER: PAPILLOMA, Dose [Carcinogen]: 0.01% IN DRINKING WATER FOR 4 WK, Promoter: NONE USED

O=C1NS(=O)(=O)c2ccccc21
tumour outcome (control, treated, inhibition, significance) (Dose [Inhibitor]: 0.5% DIET DAILY FOR 34 WK STARTING AT COMPLETION OF CARCINOGEN TREATMENT (STUDY DURATION: 38 WK)): 33%, 33%, 0%, not significant | tumour outcome (control, treated, inhibition, significance) (Dose [Inhibitor]: 5% DIET DAILY FOR 34 WK STARTING AT COMPLETION OF CARCINOGEN TREATMENT (STUDY DURATION: 38 WK)): 33%, 20%, 39%, not significant
